The text below walks through data of paper PMC6973020, “Quinoline‐Conjugated Ruthenacarboranes: Toward Hybrid Drugs with a Dual Mode of Action” (Chemmedchem, 2019).

“Also recorded” adds a separate entry of the source.

A short description of data set [1]: Stability in water‐containing DMSO‐d6 (NMR spectroscopy). The data set is classed as physicochemical. Particulars: in air, 1H and 11B{1H} NMR, over one month. The protocol: NMR spectroscopy. To determine the stability in biocompatible organic solvents, 3–5 (each ca. 3 mg) were dissolved in water‐containing DMSO‐d6 (0.6 mL) in air at room temperature, and periodically frozen (4–5 °C) and unfrozen. The solutions were analyzed with ^1H and ^11B{^1H} NMR spectroscopy over a period of one month.

Another data set deals with MCF‐7 cells. Description: DAPI staining, fluorescence microscopy, MCF‐7. The class given is cell-based, human. Particulars: MCF‐7, 20 μM, 72 h. The protocol: Flow cytometry. For gaining better insights into the mechanisms of action of the ruthenium complexes, MCF‐7 and LN229 cells incubated with an IC50 dose of 3 or 4, were analyzed via flow cytometry. Several staining protocols were carried out in parallel, in independent experiments: i) AnnV/PI for the detection of apoptotic cell death, ii) AO for the detection of acidic vacuoles, iii) ApoStat for checking caspase activation, iv) CFSE for detecting interference with cellular proliferation, and v) DAPI for the detection of morphological signs of apoptosis. Untreated cells or cells treated only with BSA (control) were also measured, as reference for BSA‐free and BSA‐containing drug formulations, respectively. […] Channels FL1 (green emission), FL2 (orange emission) and/or FL3 (dark red emission) were used for fluorescence detection, according to the specific staining agent. Sideward Scatter (SSC) for MCF‐7 cells treated with 4 or BSA−4 was also analyzed, with respect to the control, for detection of shifts of cell granularity. […]
FCS, 2 mM L‐glutamine, 0.01% sodium pyruvate and antibiotics, at 37 °C in a humidified atmosphere with 5% CO2. […] Cells were counted and seeded in 96‐well plates and incubated overnight, as described above. […]
Staining Protocols for Flow Cytometric Analysis. […] Finally, cells were washed in PBS, resuspended in PBS (or AnnV‐binding buffer for AnnV/PI), and analysed. […]

Consider “closo ‐[3‐(η^6‐p‐Cymene)‐1‐(quinolin‐8‐yl‐acetate)‐3,1,2‐RuC2B9H10] [Compound 4]”, for which the “stability in water‐containing DMSO‐d6 solution” value in data set [1] is “stable; also recorded: sufficient chemical stability”. The “morphological signs of apoptosis (DAPI)” value in the data set with MCF‐7 cells is given as “sparse morphological signs of apoptosis”.
Taken in the same sequence, the figures for “closo‐ [Compound 3, closo‐ [3‐(η^6‐p‐Cymene)‐1‐(CH2COOH)‐3,1,2‐RuC2B9H10]]” were “stable; also recorded: sufficient chemical stability” and “sparse morphological signs of apoptosis”.
